Measurements published in paper PMC5272797 (Biochemical pharmacology, 2016).

Tests used:
Type in all cases: biochemical
[1] = biological target: EGFR L861Q (Homo sapiens, UniProt P00533, L861Q); assay: Z'-LYTE Tyr4 peptide kinase assay, single dose […]; settings: read-out: Mean inhibition at 10 μM (%)
[2] = biological target: EGFR (ErbB1) (Homo sapiens, UniProt P00533); assay: Z'-LYTE Tyr4 peptide kinase assay, 10-point dose-response
[3] = biological target: EGFR T790M (Homo sapiens, UniProt P00533, T790M); assay: Z'-LYTE Tyr4 peptide kinase assay, single dose […]; settings: read-out: Mean inhibition at 10 μM (%)
[4] = biological target: EGFR L858R (Homo sapiens, UniProt P00533, L858R); assay: Z'-LYTE Tyr4 peptide kinase assay, single dose […]; settings: read-out: Mean inhibition at 10 μM (%)
Sequence of EGFR L858R (P00533 668-1210 L858R limits assumed): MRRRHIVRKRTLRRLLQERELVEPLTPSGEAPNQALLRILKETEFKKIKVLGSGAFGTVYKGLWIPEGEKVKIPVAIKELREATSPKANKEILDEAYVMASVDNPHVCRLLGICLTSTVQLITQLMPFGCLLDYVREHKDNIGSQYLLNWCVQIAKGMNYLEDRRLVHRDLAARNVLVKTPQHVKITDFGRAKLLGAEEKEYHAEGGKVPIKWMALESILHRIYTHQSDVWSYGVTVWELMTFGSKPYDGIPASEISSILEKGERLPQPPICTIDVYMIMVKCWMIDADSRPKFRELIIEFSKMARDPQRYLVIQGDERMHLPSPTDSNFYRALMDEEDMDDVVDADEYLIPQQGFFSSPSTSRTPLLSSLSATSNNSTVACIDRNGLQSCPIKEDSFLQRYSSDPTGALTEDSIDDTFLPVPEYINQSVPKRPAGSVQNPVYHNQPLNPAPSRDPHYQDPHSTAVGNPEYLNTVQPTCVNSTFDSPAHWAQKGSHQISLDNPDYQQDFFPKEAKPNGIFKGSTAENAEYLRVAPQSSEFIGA

Sequence of EGFR (ErbB1) (P00533 668-1210): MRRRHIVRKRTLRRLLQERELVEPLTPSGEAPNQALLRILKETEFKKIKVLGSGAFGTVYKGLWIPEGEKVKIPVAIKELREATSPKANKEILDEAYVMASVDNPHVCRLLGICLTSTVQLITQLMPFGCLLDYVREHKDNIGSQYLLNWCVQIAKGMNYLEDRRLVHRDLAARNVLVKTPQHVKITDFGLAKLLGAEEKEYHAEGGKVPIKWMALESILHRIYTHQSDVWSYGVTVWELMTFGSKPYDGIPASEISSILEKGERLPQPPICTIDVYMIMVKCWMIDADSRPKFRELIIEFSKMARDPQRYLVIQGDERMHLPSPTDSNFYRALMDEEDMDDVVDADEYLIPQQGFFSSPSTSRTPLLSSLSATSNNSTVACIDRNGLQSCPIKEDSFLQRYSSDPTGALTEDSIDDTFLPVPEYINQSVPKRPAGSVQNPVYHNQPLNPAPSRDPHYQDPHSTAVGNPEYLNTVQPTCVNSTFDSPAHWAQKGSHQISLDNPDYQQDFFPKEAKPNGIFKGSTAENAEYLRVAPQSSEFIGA
Sequence of EGFR L861Q (P00533 668-1210 L861Q limits assumed): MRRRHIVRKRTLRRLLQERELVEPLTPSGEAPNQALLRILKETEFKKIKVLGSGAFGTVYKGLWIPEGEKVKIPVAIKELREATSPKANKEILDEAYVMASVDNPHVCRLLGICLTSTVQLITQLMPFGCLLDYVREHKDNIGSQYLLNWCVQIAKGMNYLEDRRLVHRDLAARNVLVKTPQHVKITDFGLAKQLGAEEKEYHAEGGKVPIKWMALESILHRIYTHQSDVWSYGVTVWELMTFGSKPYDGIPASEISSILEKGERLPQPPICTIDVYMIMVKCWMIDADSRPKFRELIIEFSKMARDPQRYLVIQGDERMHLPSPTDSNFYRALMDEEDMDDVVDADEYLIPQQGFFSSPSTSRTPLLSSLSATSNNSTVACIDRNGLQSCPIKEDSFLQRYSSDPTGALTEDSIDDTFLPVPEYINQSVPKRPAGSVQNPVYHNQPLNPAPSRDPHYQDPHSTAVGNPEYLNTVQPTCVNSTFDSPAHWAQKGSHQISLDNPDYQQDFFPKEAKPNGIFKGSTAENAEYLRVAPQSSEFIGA
Sequence of EGFR T790M (P00533 668-1210 T790M limits assumed): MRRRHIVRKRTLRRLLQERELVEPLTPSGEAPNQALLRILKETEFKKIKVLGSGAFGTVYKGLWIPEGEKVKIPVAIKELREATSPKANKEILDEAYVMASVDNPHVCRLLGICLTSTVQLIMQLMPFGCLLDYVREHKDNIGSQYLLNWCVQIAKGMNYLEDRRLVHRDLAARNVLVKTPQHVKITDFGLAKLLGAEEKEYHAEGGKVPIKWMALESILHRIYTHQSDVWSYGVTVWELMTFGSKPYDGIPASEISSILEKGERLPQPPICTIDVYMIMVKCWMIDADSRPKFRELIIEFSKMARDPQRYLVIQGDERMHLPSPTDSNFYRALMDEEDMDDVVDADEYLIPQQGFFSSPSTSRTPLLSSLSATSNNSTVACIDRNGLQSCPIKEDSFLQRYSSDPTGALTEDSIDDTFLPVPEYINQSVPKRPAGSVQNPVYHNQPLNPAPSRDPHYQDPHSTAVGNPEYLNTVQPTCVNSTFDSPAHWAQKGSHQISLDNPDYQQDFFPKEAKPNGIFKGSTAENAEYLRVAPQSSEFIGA

inhibition at 10 µM [1]: 93%
IC50 [2]: 570 nM
inhibition at 10 µM [3]: 93%
inhibition at 10 µM [4]: 98%
SMILES: CCCC(=O)O[C@]1(C)CC[C@H](C(C)C)[C@@H]2[C@H]1[C@H]1C[C@](C)(O)[C@@H](O)CC[C@@](C)(OC(C)=O)[C@@H]2O1 [compound 1, Pachycladin A]
